# Results from patent publication US20110144565A1, “COMBINATION OF A TILIROSIDE AND A PEPTIDE” (LABORATOIRES CLARINS, priority 2008, published 2011).
# Test system: collagen type I synthesis in normal adult human fibroblasts
# Assay: Immunolocalization of collagen type I in normal adult human fibroblasts (immunofluorescence, image analysis)
# Type: cell-based
# Conditions: 2×10^−3% palmitoyl lysine-valine-5 diaminohydroxybutyrate (P1), 72 hours, Anova
# Method: The fibroblasts were seeded into 6-well plates with a glass coverslip in a proportion of 70 000 cells per dish, in MEM (Minimum Essential Medium). […] Each cell layer was then rinsed and fixed with methanol (−20° C.) before visualizing the collagen type I by immunofluorescence. […] The incubation time between each antibody is 1 hour. The cell nuclei are visualized by means of Dapi labeling. The coverslips are mounted on glass slides and then observed under a fluorescence microscope (Nikon Eclipse 50i). Photographs are taken of several fields of the cell population. The TRITC fluorescence images indicate the regions of localization of collagen type I. The DAPI fluorescence images indicate the cell nuclei and therefore the number of cells per field. The photographic images are analyzed using the Lucia image analysis software. The intensity of collagen labeling was observed on 14 and 15 photographic images according to the conditions. This fluorescence intensity is related to the number of cells per image. The differences in mean between the populations were studied by analysis of variance (Anova). This method uses measurements of variance in order to determine the significant or nonsignificant nature of the differences in mean measured on the populations.
substance,measurement,value
palmitoyl lysine-valine-5 diaminohydroxybutyrate,collagen type I labeling (fluorescence intensity related to the number of cells) compared with the nontreated control,statistically significant (p<0.0001) increase in collagen
